Patent US7217722B2 (Kirin Beer Kabushiki Kaisha, priority 2000, dated 2007)

molecular target: Rho kinase (fused protein of bovine Rho kinase catalyst region and glutathione S-transferase) (Bos taurus, UniProt Q28021); assay: Rho kinase inhibitory activity (phosphorylation of S6 231–239 substrate, γ32P-ATP); format: biochemical; details: concentration inhibiting substrate phosphorylation by 50%
Method: This permits the substrate to be labeled with the radioisotope.
Thereafter, the substrate was adsorbed to a filter paper. ATP was washed away with a phosphoric acid solution, and the amount of the phosphorylated substrate was then measured with a liquid scintillation counter.

Rho kinase (fused protein of bovine Rho kinase catalyst region and glutathione S-transferase), sequence (Q28021 92-354 limits assumed): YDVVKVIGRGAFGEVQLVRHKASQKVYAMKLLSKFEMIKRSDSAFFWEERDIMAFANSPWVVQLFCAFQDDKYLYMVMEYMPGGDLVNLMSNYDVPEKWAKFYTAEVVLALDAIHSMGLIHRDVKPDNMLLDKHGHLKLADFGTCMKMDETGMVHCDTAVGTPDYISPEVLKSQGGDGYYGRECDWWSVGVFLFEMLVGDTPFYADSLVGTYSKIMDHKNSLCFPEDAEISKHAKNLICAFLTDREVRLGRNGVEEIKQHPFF

Row | Structure (SMILES) | IC50 [nM]
1 | O=C(Nc1ccncc1)Nc1ccc(F)cc1C(F)(F)F [Example 59, N-[4-Fluoro-2-(trifluoromethyl)phenyl]-N′-(4-pyridyl)urea] | 7270
2 | Cc1cc(Cl)c(OCC(=O)Nc2ccncc2)c(Cl)c1 [Example 30, N1-(4-Pyridyl)-2-(2,6-dichloro-4-methylphenoxy)acetamide] | 1150
3 | O=C(COc1c(F)cc(F)cc1F)Nc1ccncc1 [Example 28, N1-(4-Pyridyl)-2-(2,4,6-trifluorophenoxy)acetamide] | 8110
4 | O=C(/C=C/c1ccccc1O)Nc1ccc2[nH]ncc2c1 [Example 35, N1-(1H-5-Indazolyl)-(E)-3-(2-hydroxyphenyl)-2-propeneamide] | 1280
5 | O=C(Nc1ccncc1)Nc1c(F)cccc1C(F)(F)F [Example 58] | 13500
6 | O=C(CC1CCCCC1)Nc1ccncc1 [Example 31, N1-(4-Pyridyl)-2-cyclohexylacetamide] | 5290
7 | COc1cc(/C=C/C(=O)Nc2ccc3[nH]ncc3c2)ccc1O [Example 40, N1-(1H-5-Indazolyl)-(E)-3-(4-hydroxy-3-methoxyphenyl)-2-propeneamide] | 231
8 | O=C(NCc1cccc2ccccc12)Nc1ccc2[nH]ncc2c1 [Example 107, N-(1H-5-Indazolyl)-N′-(1-naphthylmethyl)urea] | 470
9 | O=C(COc1ccc(O)cc1)Nc1ccc2[nH]ncc2c1 [Example 51, N1-(1H-5-Indazolyl)-2-(4-hydroxyphenoxy)acetamide] | 459
10 | O=C(NCc1ccccc1)Nc1ccncc1 [Example 92, N-Benzyl-N′-(4-pyridyl)urea] | 10200
11 | O=C(Nc1ccc2c(c1)C(=O)NC2=O)Nc1c(Cl)cccc1Cl [Example 67, N-(2,6-Dichlorophenyl)-N′-(1,3-dioxo-2,3-dihydro-1H-isoindolyl)urea] | 1920
12 | O=C(NCc1c(Cl)cccc1Cl)Nc1ccc2c(c1)C(=O)NC2=O [Example 68, N1-(2,6-Dichlorobenzyl)-N′-(1,3-dioxo-2,3-dihydro-1H-5-isoindolyl)urea] | 110
13 | O=C(CCc1ccc(O)cc1)Nc1ccc2[nH]ncc2c1 [Example 47, N1-(1H-5-Indazolyl)-3-(4-hydroxyphenyl)-propaneamide] | 735
14 | O=C(NCc1c(F)ccc(F)c1F)Nc1ccncc1 [Example 108, N-(Pyridyl)-N′-(2,3,6-trifluorobenzyl)urea] | 3800
15 | O=C(Nc1ccncc1)Nc1c(F)cccc1Cl [Example 18, N-(2-Chloro-6-fluorophenyl)-N′-(4-pyridyl)urea] | 2870
16 | O=C(Nc1ccccc1)Nc1ccc2c(c1)C(=O)NC2=O [Example 72, N1-(1,3-Dioxo-2,3-dihydro-1H-5-isoindolyl)-N′-phenylurea] | 900
17 | CCOC(=O)c1cc(Cl)c(OCC(=O)Nc2ccncc2)c(Cl)c1 [Example 26, Ethyl 3,5-dichloro-4-[2-oxo-2-(4-pyridylamino)ethoxy]benzoate] | 1030
18 | O=C(Cc1ccc(O)c(O)c1)Nc1ccc2[nH]ncc2c1 [Example 44, N1-(1H-5-Indazolyl)-2-(3,4-dihydroxyphenyl)acetamide] | 394
19 | O=C(Nc1ccncc1)Nc1c(Cl)cc(C(F)(F)F)cc1Cl [Example 63, N-[2,6-Dichloro-4-(trifluoromethyl)phenyl]-N′-(4-pyridyl)urea] | 2500
20 | O=C(Nc1ccc2[nH]ncc2c1)Nc1c(Cl)cccc1Cl [Example 13, N-(2,6-Dichlorophenyl)-N′-(1H-5-indazolyl)urea] | 980
21 | O=C(NCc1ccc(Cl)cc1Cl)Nc1ccc2[nH]ncc2c1 [Example 100, N-(2,4-Dichlorobenzyl)-N′-(1H-5-indazolyl)urea] | 220
22 | O=C(COc1c(Cl)cccc1Cl)Nc1ccncc1 [Example 3, N1-(4-Pyridyl)-2-(2,6-dichlorophenoxy)acetamide] | 910
23 | O=C(NCc1c(F)cc(F)cc1F)Nc1ccc2c(c1)C(=O)NC2=O [Example 99, N-(1,3-Dioxo-2,3-dihydro-1H-5-isoindolyl)-N′-(2,4,6-trifluorobenzyl)urea] | 240
24 | Nc1ccccc1CNC(=O)Nc1ccc2c(c1)C(=O)NC2=O [Example 87] | 180
25 | O=C(Nc1ccncc1)Nc1ccc(Br)cc1F [Example 60, N-(4-Bromo-2-fluorophenyl)-N′-(4-pyridyl)urea] | 11000

The next lines start with the values.

Row | IC50 [nM] | Structure (SMILES)
26 | 355 | COc1ccc(CN2CCC(Nc3ccc4[nH]ncc4c3)CC2)cc1 [Example 138, N-(1H-5-Indazolyl)-N-[1-(4-methoxybenzyl)-4-piperidyl]amine]
27 | 250 | Cc1ccc(CN2CCC(Nc3ccc4[nH]ncc4c3)CC2)cc1 [Example 139, N-(1H-5-Indazolyl)-N-[1-(4-methylbenzyl)-4-piperidyl]amine]
28 | 161 | O=C(NCc1c(F)ccc(F)c1F)Nc1ccc2c(c1)C(=O)NC2=O [Example 109, N-(1,3-Dioxo-2,3-dihydro-1H-5-isoindolyl)-N′-(2,3,6-trifluorobenzyl)urea]
29 | 2 | COc1ccc(CN2CCC(Nc3ccc4[nH]ncc4c3)C2)cc1 (stereo not shown) [Example 156, N-(1H-5-Indazolyl)-N-[1-(4-methoxybenzyl)tetrahydro-1H-3-pyrrolyl]amine]
30 | 84 | Fc1ccc(CN2CCC(Nc3ccc4[nH]ncc4c3)C2)cc1 (stereo not shown) [Example 154, N-[1-(4-Fluorobenzyl)tetrahydro-1H-3-pyrrolyl]-N-(1H-5-indazolyl)amine]
31 | 478 | Fc1ccc(CN2CCC(Nc3ccc4[nH]ncc4c3)CC2)cc1 [Example 137, N-[1-(4-Fluorobenzyl)-4-piperidyl]-N-(1H-5-indazolyl)amine]
32 | 821 | Fc1cccc(Cl)c1CN1CCC(Nc2ccc3[nH]ncc3c2)CC1 [Example 150, N-[1-(2-Chloro-6-fluorobenzyl)-4-piperidyl]-N-(1H-5-indazolyl)amine]
33 | 5 | O=[N+]([O-])c1cccc(CN2CCC(Nc3ccc4[nH]ncc4c3)C2)c1 (stereo not shown) [Example 158, N-(1H-5-Indazolyl)-N-[1-(3-nitrobenzyl)tetrahydro-1H-3-pyrrolyl]amine]
34 | 747 | CCN1CCC(Nc2ccc3[nH]ncc3c2)CC1 [Example 125, N-(1-Ethyl-4-piperidyl)-N-(1H-5-indazolyl)-amine]
35 | 309 | CC(C)c1ccc(CN2CCC(Nc3ccc4[nH]ncc4c3)CC2)cc1 [Example 122, N-(1H-5-Indazolyl)-N-[1-(4-isopropylbenzyl)-4-piperidyl]amine]
36 | 80 | COc1cc(CN2CCCC(Nc3ccc4[nH]ncc4c3)C2)cc(OC)c1 (stereo not shown) [Example 170, N-[1-(3,5-Dimethoxybenzyl)-3-piperidyl]-N-(1H-5-indazolyl)amine]
37 | 655 | c1ccc(COc2ccc(CN3CCC(Nc4ccc5[nH]ncc5c4)CC3)cc2)cc1 [Example 142, N-{1-[4-(Benzyloxy)benzyl]-4-piperidyl}-N-(1H-5-indazolyl)amine]
38 | 329 | Clc1ccc(CN2CCC(Nc3ccc4[nH]ncc4c3)CC2)cc1Cl [Example 114, N-[1-(3,4-Dichlorobenzyl)-4-piperidyl]-N-(1H-5-indazolyl)amine]
39 | 372 | Cc1ccc(CN2CCC(Nc3ccc4[nH]ncc4c3)CC2)cc1C [Example 115, N-[1-(3,4-Dimethylbenzyl)-4-piperidyl]-N-(1H-5-indazolyl)amine]
40 | 462 | COC(=O)c1cccc(CN2CCC(Nc3ccc4[nH]ncc4c3)CC2)c1 [Example 147, Methyl 3-{[4-(1H-5-indazolylamino)piperidino]methyl}benzoate]
